System: S. intermedius 8407075
Experiment: Experiment 7: effect of maltose on α-glucosidase activity, weak inocula
Type: cell-based, Staphylococcus intermedius
Set-up: key: 0 corresponds to a lack of activity; 0.1 corresponds to the presence of a trace of coloration; 0.5 corresponds to the presence of a very pale coloration; 1 corresponds to the presence of a clear coloration of weak intensity; 1.5 corresponds to the presence of a coloration which is intermediate between colorations 1 and 2; 2 corresponds to the presence of a true coloration of medium intensity; 2.5 corresponds to the presence of a coloration which is intermediate between colorations 2 and 3; 3 corresponds to the presence of an intense coloration; 3.5 corresponds to the presence of a coloration which is intermediate between colorations 3 and 4; 4 corresponds to the presence of a very intense coloration
Details: strain 6
Protocol: The maltose is solubilized in water at a concentration of, for example, 100 g/l, and then a sufficient volume to obtain the final concentrations above is added to the three molten media. The Staphylococcal strains derived from the bioMérieux internal collection were seeded onto each one of the chromogenic media on their own (closely spaced perpendicular streaks over the entire surface of the dish) using a suspension at 0.5 MacFarland diluted to 1/30000. The dishes were incubated at 37° C. for 48 hours. The colonies formed were examined visually after 18, 24 and 48 hours of incubation and the intensity of coloration of the colonies was marked. The coloration was noted and the intensity of these colorations was marked. The reading scale is the same as that used above for tables 2 and 4.

Compound: OC[C@H]1O[C@H](O[C@H]2[C@H](O)[C@@H](O)C(O)O[C@@H]2CO)[C@H](O)[C@@H](O)[C@@H]1O (mixture of isomers) [Maltose, maltose]
- Intensity of coloration of the colonies (18 h, Maltose 100 mg/l): 0.3
- Intensity of coloration of the colonies (18 h, Maltose 300 mg/l): 0.3
- Intensity of coloration of the colonies (18 h, Maltose 400 mg/l): 0.3
- Intensity of coloration of the colonies (24 h, Maltose 100 mg/l): 0.6
- Intensity of coloration of the colonies (24 h, Maltose 300 mg/l): 0.8
- Intensity of coloration of the colonies (24 h, Maltose 400 mg/l): 1
- Intensity of coloration of the colonies (>40 h, Maltose 100 mg/l): 0.8
- Intensity of coloration of the colonies (>40 h, Maltose 300 mg/l): 1
- Intensity of coloration of the colonies (>40 h, Maltose 400 mg/l): 1.3

From patent US7807439B2, “Staphylococcus aureus-specific detection media and identifying and/or counting method using same” (Biomerieux S.A., priority 2001, dated 2010)
